The source of these data is US6413975B1, “Purine derivatives having phosphodiesterase iv inhibition activity” (Euro-Celtique, S.A., priority 1999, dated 2002).

Structures can show the parent of a compound that is named as a salt.

In the first assay the test system is Type IV PDE. In words: PDE IV inhibition: hydrolysis of [3H]-cyclic AMP by isolated Type IV PDE. The assay is classed as biochemical, bovine. The note with it: adenines, Table 4; cyclic AMP 0.2 μM; read-out: calc PDE IV IC50. The protocol: The Type IV PDE is isolated from bovine tracheal smooth muscle using a procedure similar to that previously described by Silver, P. J., Hamel, L. T., Perrone, M. H. Bentley, R. G. Bushover, C. R., Evans, D. B.: Eur. J. Pharmacol. 150:85,1988.(1). Briefly, smooth muscle from bovine trachea is minced and homogenized using a polytron in 10 volumes of an extraction buffer containinhg 10 mM Tris-acetate (pH 7.5), 2 mM magnesium chloride, 1 mM dithiothreitol and 2,000 units/ml of aprotinin. This and all subsequent procedures are performed at 0-4° C. The homogenate is sonicated and then centrifiged at 48,000×g for 30 minutes. The resulting supernatant is applied to a DEAE Trisacryl M column previously equilibrated with sodium acetate and dithiothreitol. After applications of the sample, the column is washed with sodium acetate/dithiothreitol, after which the different forms of PDE are eluted from the column using a linear Tris-HCl/NaCl gradient. Fractions containing Type IV PDE are collected, dialyzed and concentrated to 14% of the original volume. The concentrated fractions are diluted to 50% with ethylene glycol and stored at -20° C.
Enzyme activity is assessed by measuring the hydrolysis of [^3H]-cyclic AMP, as described by Thompson, W. J., Teraski, W. L., Epstein, P. N., Strada, S. J.: Adv. Cyclic Nucleotide Res. 10:69, 1979. The cyclic AMP concentration used in this assay is 0.2 μM, which approximates the Km value. Protein concentration is adjusted to ensure that no more than 15% of the available substrate is hydrolyzed during the incubation period.
All test compounds are dissolved in dimethyl sulfoxide (final concentration of 2.5%). This concentration of dimethyl sulfoxide inhibits enzyme activity by approximately 10%.
As to `CCCCn1cnc(NCC)c2ncnc1-2` [3-butyl-6-ethylamino-3H-purine hydrochloride], the IC50 was 66.4 µM.

On to `CCCCn1cnc(NCC)c2nc(C3CC3)nc1-2` [3-butyl-8-cyclopropyl-6-ethylamino-3H-purine hydrochloride], for which the IC50 is 5.99 µM.

`CCNc1ncn(CC2CCCCC2)c2ncnc1-2` [3-cyclohexylmethyl-6-ethylamino-3H-purine hydrochloride]: the IC50 was 33 µM.

For `CCNc1ncn(CC2CCCCC2)c2nc(C3CC3)nc1-2` [3-cyclohexylmethyl-8-cyclopropyl-6-ethylamino-3H-purine hydrochloride], the IC50 was 3.78 µM.

As for `CCNc1ncn(CC2CC2)c2nc(C(C)C)nc1-2` [3-cyclopropylmethyl-8-isopropyl-6-ethylamino-3H-purine hydrochloride], the IC50 is 12.7 µM.

Still in this assay, the particulars now being: adenines, Table 7; read-out: calc PDE IV IC50.
Regarding `CCNc1ncn(Cc2ccc(OC)c(OC3CCC(O)C3)c2)c2nc(C(C)C)nc1-2` (stereo not shown) [3-(3-((3-hydroxy)cyclopentyloxy)-4-methoxybenzyl)-6-ethylami] [3-(3-((3-hydroxy)cyclopentyloxy)-4-methoxybenzyl)-6-ethylamino-8-isopropyl-3H-purine], the IC50 is 1.36 µM.

`CCNc1ncn(Cc2ccc(OC)c(OCc3ccccc3)c2)c2nc(C(C)C)nc1-2` [3-(3-benzyloxy-4-methoxy-benzyl)-6-ethylamino-8-isopropyl-3H-purine]: the IC50 is 1.3 µM.

Take `CCNc1ncn(Cc2cccc(Cl)c2)c2nc(C(C)C)nc1-2` [3-(3-chlorobenzyl)-6-ethylamino-8-isopropyl-3H-purine]: the IC50 was 2.15 µM.

Regarding `COc1ccc(CNc2ncn(Cc3ccc(OC)c(OC4CCCC4)c3)c3nc(C(C)C)nc2-3)cc1OC1CCCC1` [3-(3-cyclopentyloxy-4-methoxybenzyl)-6-(3-cyclopentyloxy-4-methoxybenzylamino)-8-isopropyl-3H-purine], the IC50 is 1.14 µM.

Consider `COc1ccc(Cn2cnc(NCC(F)(F)F)c3nc(C(C)C)nc2-3)cc1OC1CCCC1` [3-(3-cyclopentyloxy-4-methoxybenzyl)-6-((2,2,2-trifluoroethyl)amino)-8-isopropyl-3H-purine], for which the IC50 is 12.8 µM.

Take `CCN(C(=O)c1ccccc1)c1ncn(Cc2ccc(OC)c(OC3CCCC3)c2)c2nc(C(C)C)nc1-2` [3-(3-cyclopentyloxy-4-methoxybenzyl)-6-(N-benzoyl-N-ethylamino)-8-isopropyl-3H-purine]: the IC50 is 1.43 µM.

In the case of `COc1ccc(Cn2cnc(N)c3nc(C(C)C)nc2-3)cc1OC1CCCC1` [3-(3-cyclopentyloxy-4-methoxybenzyl)-6-amino-8-isopropyl-3H-purine], the IC50 is 0.82 µM.

On to `COc1ccc(Cn2cnc(N(C)C)c3nc(C(C)C)nc2-3)cc1OC1CCCC1` [3-(3-cyclopentyloxy-4-methoxybenzyl)-6-dimethylamino-8-isopropyl-3H-purine], for which the IC50 was 19.3 µM.

Regarding `CCNc1nc(NCC)n(Cc2ccc(Cl)cc2)c2nc(C(C)C)nc1-2` [3-(4-chlorobenzyl)-2,6-di(ethylamino)-8-isopropyl-3H-purine], the IC50 is 11.2 µM.

As for `CC(C)c1nc2c(NC3(O)CCCC3)ncn(Cc3ccc(Cl)cc3)c-2n1` [3-(4-chlorobenzyl)-6-((1-hydroxy)cyclopentylamino)-8-isopropyl-3H-purine], the IC50 is 4.48 µM.

For `CC(C)c1nc2c(NC3CCCC3)ncn(Cc3ccc(Cl)cc3)c-2n1` [3-(4-chlorobenzyl)-6-cyclopentylamino-8-isopropyl-3H-purine], the IC50 was 4.7 µM.

In the case of `CC(C)c1nc2c(NC3CC3)ncn(Cc3ccc(Cl)cc3)c-2n1` [3-(4-chlorobenzyl)-6-cyclopropylamino-8-isopropyl-3H-purine], the IC50 is 1.69 µM.

Turning to `CCNc1ncn(-c2ccc(Cl)cc2)c2nc(C(C)C)nc1-2` [3-(4-chlorophenyl)-6-ethylamino-8-isopropyl-3H-purine], the IC50 is 6.5 µM.

`COc1ccc(Cn2cncc3nc(C(C)(C)O)nc2-3)cc1OC1CCC(O)C1` (stereo not shown) [3-[3-(3-Hydroxy-cyclopentyloxy)-4-methoxy-benzyl]-8-(1-hydroxy-1-methyl-ethyl)-3H-purine]: the IC50 is 2.25 µM.

In the case of `CCNc1ncn(Cc2ccc(OC)c(OC3CCC(O)C3)c2)c2nc(C(C)C)nc1-2` (stereo not shown) [3-[3-(3-hydroxy)cyclopentyloxy)]-4-methoxy)benzyl)-6-ethylam] [3-[3-(3-hydroxy)cyclopentyloxy)]-4-methoxy)benzyl)-6-ethylamino-8-isopropyl-3H-purine], the IC50 was 2.28 µM.

Turning to `CCNc1ncn(Cc2ccc(OC)c(OC3CCCCC3)c2)c2nc(C(C)C)nc1-2` [3-[3-Cyclohexanyl-4-oxy-4-methoxy-benzyl]-6-ethylamino-8-isopropyl-3H-purine], the IC50 was 8.28 µM.

Consider `C=C(C)c1nc2c(NCC)ncn(Cc3ccc(OC)c(OC4CCCC4)c3)c-2n1` [3-[(3-cyclopentyloxy-4-methoxy)benzyl]-6-ethylamino-8-(1-methyl-ethenyl)-3H-purine], for which the IC50 is 0.27 µM.

`CCNc1ncn(Cc2ccc(OC)c(OC3CCCC3)c2)c2nc(C(C)(C)O)nc1-2` [3-[(3-cyclopentyloxy-4-methoxy)benzyl]-6-ethylamino-8-[(1-hy] [3-[(3-cyclopentyloxy-4-methoxy)benzyl]-6-ethylamino-8-[(1-hydroxy-1-methyl)ethyl]-3H-purine]: the IC50 is 0.85 µM.

For the compound `CCNc1ncn(Cc2ccc(OC)c(OC3CCCC3)c2)c2nc(C(C)(C)O)nc1-2` [3-[(3-cyclopentyloxy-4-methoxy)benzyl]-8-[(1-methyl-1-hydrox] [3-[(3-cyclopentyloxy-4-methoxy)benzyl]-8-[(1-methyl-1-hydroxy)ethyl]-6-ethylamino-3H-purine], the IC50 was 3.1 µM.

The assay is the same for the next values; noted with them: dithioxanthines, Table 5; read-out: IC50 PDE IV.
As for `CCCn1c(=S)[nH]c(=S)c2[nH]c(C(C)C)nc21` [3,7-dihydro-8-isopropyl-3-propyl-2,6-dithio-1H-purine-2,6-dione], the IC50 is 3.5 µM.

For `CC(C)c1nc2c([nH]1)c(=S)[nH]c(=S)n2Cc1ccccc1Cl` [3-(2-chlorobenzyl)-3,7-dihydro-8-isopropyl-2,6-dithio-1H-purine-2,6-dione], the IC50 amounted to 7.74 µM.

In the case of `COc1ccc(Cn2c(=S)[nH]c(=S)c3[nH]cnc32)cc1OC1CCCC1` [3-(3-cyclopentyloxy-4-methoxybenzyl)-3,7-dihydro-2,6-dithio-1H-purine-2,6-dione], the IC50 stood at 16.2 µM.

Consider `CC(C)c1nc2c([nH]1)c(=S)[nH]c(=S)n2Cc1ccc(Cl)cc1` [3-(4-chlorobenzyl)-8-isopropyl)-3,7 dihydro-2,6-dithio-3,7-purine-2,6-dione], for which the IC50 amounted to 2.4 µM.

Regarding `S=c1[nH]c(=S)n(Cc2ccccc2)c2nc[nH]c12` [3-benzyl-3,7-dihydro-2,6-dithio-1H-purine-2,6-dione], the IC50 came out at 38.5 µM.

On to `CCCCn1c(=S)[nH]c(=S)c2[nH]c(C(C)C)nc21` [3-butyl-3,7-dihydro-8-(1-methylethyl)-2,6-dithio-1H-purine-2,6-dione], for which the IC50 was found to be 5.93 µM.

As to `CCCCn1c(=S)[nH]c(=S)c2[nH]c(C3CC3)nc21` [3-butyl-8-cyclopropyl-3,7-dihydro-2,6-dithio-1H-purine-2,6-dione], the IC50 worked out at 9.43 µM.

For the compound `S=c1[nH]c(=S)n(CC2CCCCC2)c2nc(C3CC3)[nH]c12` [3-cyclohexylmethyl-8-cyclopropyl-3,7-dihydro-2,6-dithio-1H-purine-2,6-dione], the IC50 worked out at 3.03 µM.

The assay is the same for the next values; noted with them: read-out: PDE IV I50.
Consider `CCNc1ncn(Cc2ccc(OC)c(OC3CCCC3)c2)c2ncnc1-2` [3-(3-Cyclopentyloxy-4-methoxybenzyl)-6-ethylamino-3H-purine Hydrochloride], for which the IC50 was 2.15 µM.

Regarding `CC(C)c1nc2c([nH]1)c(=S)[nH]c(=S)n2Cc1ccc(Cl)cc1` [3-(4-chlorobenzyl)-8-isopropyl)-3,7 dihydro-2,6-dithio-3,7-purine-2,6-dione], the IC50 is 2.27 µM.

Regarding `CC(C)c1nc2c([nH]1)c(=S)[nH]c(=S)n2Cc1ccccc1` [3-benzyl-3,7-dihydro-8-(1-methylethyl)-2,6-dithio-1H-purine-2,6-dione], the IC50 turned out to be 3.4 µM.

The same assay, now with this note: thioisoguanines, Table 2; cyclic AMP 0.2 μM; read-out: Calc IC50 PDE IV.
Take `CC(C)c1nc2c([nH]1)c(NC1CCCC1)nc(=S)n2Cc1ccc(Cl)cc1` [3-(4-chlorobenzyl)-6-cyclopentylamino-3,7-dihydro-8-isopropyl-2-thio-2H-purin-2-one]: the IC50 was 114 µM.

`CCCNc1nc(=S)n(CC2CC2)c2nc(C(C)C)[nH]c12` [3-(cyclopropylmethyl)-3,7-dihydro-8-(1-methyl-ethyl)-6-propylamino-2-thio-2H-purin-2-one hydrochloride]: the IC50 was 23.9 µM.

Consider `CCNc1nc(=S)n(Cc2ccccc2)c2nc(C(C)C)[nH]c12` [3-benzyl-6-ethylamino-3,7-dihydro-8-(1-methyl-ethyl)-2-thio-2H-purin-2-one], for which the IC50 is 28.4 µM.

For `CCCCn1c(=S)nc(NCC)c2[nH]c(C3CC3)nc21` [3-butyl-8-cyclopropyl-3,7-dihydro-6-ethylamino-2-thio-2H-purin-2-one], the IC50 was 34.9 µM.

For the compound `CCNc1nc(=S)n(CC2CCCCC2)c2nc(C3CC3)[nH]c12` [3-cyclohexylmethyl-8-cyclopropyl-3,7-dihydro-6-ethylamino-2-thio-2H-purin-2-one], the IC50 is 15.2 µM.
